{"source": "patent US12440471B2", "about": "“Compositions and methods for the treatment of bronchopulmonary dysplasia (BPD) and BPD-associated pulmonary hypertension” (AyuVis Research, Inc., priority 2021, dated 2025)", "type_in_all_cases": "in vivo", "key": {"[1]": {"tested_on": "hyperoxia-exposed BPD mouse model", "test": "BPD mouse model: BPD-PH, RV hypertrophy ratios", "from_the_text": "AVR-48 protects the lungs from progressing towards BPD-PH. BPD-PH is characterized by abnormal vascular remodeling and rarefication of the pulmonary vasculature leading to vascular growth arrest which eventually leads to increased pulmonary vascular resistance and right heart failure (Hansmann, Sallmon et al. 2021). A similar effect is also seen in mouse models of experimental BPD, as reported by the present inventors, previously (Sun, Choo-Wing et al. 2013, Sureshbabu, Syed et al. 2016, Syed, Das et al. 2017, Leary, Das et al. 2019). There is hypertrophy of the right ventricle (RV) with an increase in the thickness of interventricular septum (IVS). […] There was no change in the ratio in the RA group treated with the drug, which was similar to RA control group (FIG. 8A).\nMorphometry and quantification. To study chord length, septal thickness and radial alveolar count in the lungs, RV, LV and IVS thickness, 5 μm-thick left-lobe lung and heart paraffin-embedded sections were stained with H&E. Multiple randomly chosen areas (at least 10 areas) from each section were photographed using 100× total magnification. Sections with large airways or blood vessels from the lung were excluded for lung morphometry while quantitative measurements of PH-induced RV hypertrophy ratios (RV/LV and RV/LV+IVS) were done using the methodology described previously (Sun, Choo-Wing et al. 2013). The lung morphometry parameters were measured as described (Bhandari, Choo-Wing et al. 2008, Leary, Das et al. 2019, Das, Acharya et al. 2020, Das, Curstedt et al. 2020) either using ImageJ (a free software of NIH) or CellSens software (version 7, Olympus)."}, "[2]": {"tested_on": "hyperoxia-exposed BPD mouse model", "test": "BPD mouse model: multiplex ELISA of blood serum cytokines", "procedure": "Multiplex ELISA. Lung lysate and blood plasma from control and AVR-48 treated group were used for Multiplex ELISA performed on 4 separate inflammatory panels of Meso Scale Discovery multispot assay system (MSD, Rockville, MD) to detect 2 chemokines (MIP-2, MCP-1) and 8 cytokines: IL-21, IP-10, IFNγ, IL-1(3, TNFα, IL-17, IL-10 and IL-6 following the manufacturer's instructions. Briefly, samples were diluted 1:1 in a total volume of 25 μl with the dilution buffer provided with MSD kit and incubated with the above labelling antibodies for 2 h, RT followed by washing with PB ST. The […] was detected using the MSD-specific luminometer."}, "[3]": {"tested_on": "pre-term lamb BPD model", "test": "Pre-term lamb BPD model: respiratory system mechanics by forced oscillation technique", "from_the_text": "Forced oscillation technique (FOT) allows non-invasive measurement of respiratory system (rs) impedance (Zrs) in uncooperative subjects by applying a pressure stimulus at the airway opening and measuring the resulting flow. The inventors have shown that FOT provides reliable noninvasive measurement of respiratory system mechanics in spontaneously breathing, normal term lambs from birth through the first 5 months of life (Dahl, Bowen et al. 2018). The methods and normal reference values defined in this study provide normal physiological context for determining the pathophysiological consequences of preterm birth."}, "[4]": {"tested_on": "hyperoxia-exposed BPD mouse model", "test": "BPD mouse model: immunofluorescence (Ki67, PCNA, vWF) and TUNEL staining of lung", "from_the_text": "AVR-48 restored lung morphology and improved alveolar cellular physiology. After assessment of the safety profile of the AVR-48, and confirmation of the ideal dose to be used, the inventors then performed studies to evaluate the therapeutic effect on the lung in the experimental BPD mouse model, as previously described (Bhandari, Choo-Wing et al. 2008, Leary, Das et al. 2019, Das, Acharya et al 2020, Das, Curstedt et al 2020). BPD is characterized by enlarged simplified alveoli with large air sacs, thickened septum, and thin alveolar epithelium (FIG. 2A) accompanied by overall decrease in alveolar cell proliferation, decreased/dysregulated angiogenesis and increased cell death. All these features were restored after injection of 2 doses of AVR-48, IP (10 mg/kg) on days P2 and P4. […] The total inflammatory cells present in the BALF (FIG. 3A) and the total protein content (FIG. 3B)—both increase in BPD, was decreased after treatment with AVR-48. […] To assess cell specificity, the inventors focused on Type I and Type II alveolar epithelial cells (AECs), as they are most relevant to the process of alveolarization, as described in the manuscript. The inventors utilized the receptor for advanced glycation end-products (RAGE) as the preferred marker for Type I AECs and surfactant protein (SP)-C for the Type II AECs. Due to Ki67 and SP-C being raised in the same species, we used proliferating cell nuclear antigen (PCNA) expression—a well-established marker of cell proliferation because cells remain a longer time in the G1/S phase when proliferating—as a preferred marker for proliferating cells. […] There were few cells which were double positive for PCNA as well as RAGE in the RA and RA+AVR-48 groups (FIG. 4C).\nHistology, immunohistochemistry and immunofluorescence. Both the RA control and BPD mice were anesthetized (using an overdose of a cocktail of xylazine-ketamine) and lung and heart tissues were harvested after perfusion and fixed overnight in 4% paraformaldehyde. Fixed tissues were then washed in fresh PBS, dehydrated using 70% ethanol, cleared, and embedded in paraffin to be sectioned and stained with hematoxylin and eosin (H&E) for lung morphometry or immunohistochemistry/immunofluorescence as previously described (Leary, Das et al. 2019, Das, Achaiya et al. 2020, Das, Curstedt et al. 2020). Immunofluorescence staining was done for Ki67 (Abcam, 1:10) and Von Wilebrand Factor (vWF-DAKO, 1:100) on lung paraffin sections following the protocol as described earlier (Leary, Das et al. 2019) while TUNEL staining was done following the manufacturer's instructions (Roche).\nFor quantification of cell proliferation and cell death, the entire lung section was divided into 3 areas, and the total number of Ki67+ve and TUNEL+ve cells nuclei were counted manually which was normalized with the total number of nuclei to give a percentage of positive cells. For vWF quantification, total number of closed vessels were counted per high power field area in one lung section. A minimum of 3 areas were chosen, and 3-7 animals were used for staining and counting."}}, "data": [{"molecule": "CC(=O)N[C@@H]1C(Oc2ccc([N+](=O)[O-])cc2)OC(CO)C(O)C1O", "note": "(some centres unmarked) [AVR-48]", "values": [{"measurement": "Fulton's Index (RV/LV+IVS)", "setting": "[1]; BPD group after treatment", "result": "decreased significantly"}, {"measurement": "RV/left ventricle (LV) ratio", "setting": "[1]; BPD group after treatment", "result": "decreased significantly"}, {"measurement": "RV/LV ratio and Fulton's Index in room air animals", "setting": "[1]; RA group treated with the drug vs RA control", "result": "no change"}, {"measurement": "IFNγ", "setting": "[2]; AVR-48 treated group", "result": "decreased to normal levels"}, {"measurement": "IL-1β", "setting": "[2]; AVR-48 treated group", "result": "decreased to normal levels"}, {"measurement": "IP-10", "setting": "[2]; AVR-48 treated group", "result": "decreased to normal levels"}, {"measurement": "MCP-1", "setting": "[2]; AVR-48 treated group", "result": "decreased to normal levels"}, {"measurement": "TNFα", "setting": "[2]; AVR-48 treated group", "result": "decreased to normal levels"}, {"measurement": "IL-10", "setting": "[2]; BPD group", "result": "markedly increased"}, {"measurement": "IL-17", "setting": "[2]; treated vs untreated BPD", "result": "no change"}, {"measurement": "IL-21", "setting": "[2]; treated vs untreated BPD", "result": "no change"}, {"measurement": "MIP-2", "setting": "[2]; treated vs untreated BPD", "result": "no change"}, {"measurement": "reactance (X7 hz)", "setting": "[3]; 3 mg/Kg, day of life 10", "result": "less reactance"}, {"measurement": "small airway resistance (R7-20 hz)", "setting": "[3]; 3 mg/Kg, day of life 10", "result": "less small airway resistance"}, {"measurement": "resistance (R7 hz; respiratory system)", "setting": "[3]; 3.0 mg/Kg, day of life 10, relative to placebo", "result": "lower resistance"}, {"measurement": "cell proliferation (Ki67 immunostaining)", "setting": "[4]; 10 mg/kg IP P2 and P4, vs BPD", "result": "revival in cell proliferation"}, {"measurement": "RAGE+ve cells co-localization with PCNA (Type I AECs)", "setting": "[4]; BPD or BPD+AVR-48 groups", "result": "did not co-localize with PCNA"}, {"measurement": "cells co-localizing SP-C and PCNA (proliferating Type II AECs)", "setting": "[4]; BPD vs RA, RA+AVR-48, BPD+AVR-48", "result": "less in the BPD group as compared to RA, RA+AVR-48 and BPD+AVR-48 groups"}, {"measurement": "blood vessels (vWF immunostaining)", "setting": "[4]; vs BPD group", "result": "showed improvement"}, {"measurement": "cell death (TUNEL staining, cleaved caspase 3 immunoblotting)", "setting": "[4]; vs BPD group", "result": "decrease in cell death"}]}]}
